# Measurements: patent US20230338391A1, “TREATMENT FOR DEPRESSION” (TAKEDA PHARMACEUTICAL COMPANY LIMITED, priority 2020, published 2023)
# “Also recorded” adds a separate entry of the source. Like-named read-outs stand apart in the source and are kept apart here.
# Key:
# [1] = system: CNS excitability; test: TMS crossover study of CNS PD activity in healthy subjects
# [2] = Phase 1 SRD/multiple-rising dose (MRD, Part 2) plasma PK in healthy subjects; type: in vivo, human; conditions: for Vd/F: read-out: Vz/F
# Protocol: The study was designed to assess the safety, tolerability, PK, and PD of COMPOUND A. A total of 88 subjects were enrolled in 6 SRD and 5 SRD/MRD cohorts (n=8 per cohort). The study was composed of 2 parts.
# In Part 2 of the study (SRD/MRD cohorts), a single oral tablet dose of COMPOUND A (0.3, 1, 3, 6, or 9 mg) or matching placebo was administered on Day 1 followed by safety, tolerability, PK, and PD assessments. Study drug (at the same dose level) was then administered once daily (QD) for 13 days, on […]. Each cohort of 8 subjects (6 active: 2 placebo) were administered study drug sequentially to ensure adequate safety and tolerability before administering the next dose level. Neither sentinel nor staggered dosing was used for the SRD/MRD cohorts. Subjects were confined in the study unit for 21 days, from Check-in on Day −1 until 72 hours after the last dose of study drug.
# For all cohorts in Parts 1 and 2, serial PK blood samples were collected pre- and post-dose on Day 1 to measure plasma concentrations of COMPOUND A and its metabolites. For all SRD/MRD cohorts in Part 2, urine samples were collected pre- and post-dose on Day 1 and post-dose on Day 18 to measure concentrations of COMPOUND A and its metabolites.
# For Part 1 of the study, all 36 subjects who received COMPOUND A were included in the PK set. For Part 2 of the study, all 30 subjects who received COMPOUND A were included in the PK set.
# Referring now to FIG. 3, mean plasma concentration-time profiles (linear and semilog scales) of COMPOUND A were determined on Day 18 following oral administration of COMPOUND A QD for 13 days.
# [3] = 0.5 mg and 6 mg single oral doses
# [4] = 0.3 mg QD cohort, Study Day 1, mean
# [5] = 1 mg QD cohort, Study Day 1, mean
# [6] = 3 mg QD cohort, Study Day 1, mean
# [7] = 6 mg QD cohort, Study Day 1, mean
# [8] = 9 mg QD cohort, Study Day 1, mean
# [9] = both sexes, human, plasma, oral, 0.3 mg QD cohort, Study Day 1, mean
# [10] = both sexes, human, plasma, oral, 1 mg QD cohort, Study Day 1, mean
# [11] = both sexes, human, plasma, oral, 3 mg QD cohort, Study Day 1, mean
# [12] = both sexes, human, plasma, oral, 6 mg QD cohort, Study Day 1, mean
# [13] = both sexes, human, plasma, oral, 9 mg QD cohort, Study Day 1, mean
structure (smiles),measurement,setting,value
"CC1=CN2CCS(=O)(=O)N=C2C(c2ccc(OC3CCCCC3)cc2)=N1 [COMPOUND A, 9-[4-(Cyclohexyloxy)phenyl]-7-methyl-3,4-dihydropyrazino[2,1-c][1,2,4]thiadiazine 2,2-dioxide]",SICI measurements and other secondary endpoints,[1]; [3],not statistically significant
same,"changes from baseline in the rMT, single-pulse TMS",[1]; [3],not statistically significant
same,change from baseline of LICI 300 ms,"[1]; 0.5 mg single oral dose, 2.5 hours post-dose",statistically significant PD effect
same,"peak-to-peak amplitude of the MEP, single-pulse TMS, change from baseline vs placebo","[1]; 6 mg single oral dose, 2.5 hours post-dose, stimulation intensity 120% of baseline rMT",statistically significant difference from baseline when compared with placebo; also recorded: statistically significant PD effect
same,CL/F,[2]; [4],2.38 L/h
same,t1/2z,[2]; [4],37.1 h
same,"Cav, ss","[2]; 0.3 mg QD, Study Day 18, mean",6.27 ng/mL
same,CL/F,[2]; [5],2.35 L/h
same,t1/2z,[2]; [5],42.4 h
same,"Cav, ss","[2]; 1 mg QD, Study Day 18, mean",20.9 ng/mL
same,CL/F,[2]; [6],1.81 L/h
same,t1/2z,[2]; [6],52.6 h
same,"Cav, ss","[2]; 3 mg QD, Study Day 18, mean",81.1 ng/mL
same,CL/F,[2]; [7],3.25 L/h
same,t1/2z,[2]; [7],36.0 h
same,"Cav, ss","[2]; 6 mg QD, Study Day 18, mean, n = 5",122 ng/mL
same,CL/F,[2]; [8],2.17 L/h
same,t1/2z,[2]; [8],49.9 h
same,"Cav, ss","[2]; 9 mg QD, Study Day 18, mean",192 ng/mL
same,AUC,"[2]; both sexes, human, plasma, oral, 0.3 mg, 0.3 mg QD cohort, Study Day 1, mean, read-out: AUC24",48 ng·h/mL
same,Cmax,"[2]; both sexes, human, plasma, oral, 0.3 mg, 0.3 mg QD cohort, Study Day 1, mean, read-out: Cmax",2.93 ng/mL
same,Tmax,"[2]; both sexes, human, plasma, oral, 0.3 mg, 0.3 mg QD cohort, Study Day 1, median, read-out: tmax",1.25 h
same,AUC,"[2]; both sexes, human, plasma, oral, 0.3 mg, 0.3 mg QD, Study Day 6, mean, read-out: AUC24",51.8 ng·h/mL
same,Cmax,"[2]; both sexes, human, plasma, oral, 0.3 mg, 0.3 mg QD, Study Day 6, mean, read-out: Cmax",3.07 ng/mL
same,Tmax,"[2]; both sexes, human, plasma, oral, 0.3 mg, 0.3 mg QD, Study Day 6, median, read-out: tmax",1.5 h
same,AUC,"[2]; both sexes, human, plasma, oral, 0.3 mg, 0.3 mg QD, Study Day 18, mean, read-out: AUCτ",151 ng·h/mL
same,Cmax,"[2]; both sexes, human, plasma, oral, 0.3 mg, 0.3 mg QD, Study Day 18, mean, read-out: Cmax, ss",7.87 ng/mL
same,Tmax,"[2]; both sexes, human, plasma, oral, 0.3 mg, 0.3 mg QD, Study Day 18, median, read-out: tmax",2.5 h
same,AUC,"[2]; both sexes, human, plasma, oral, 1 mg, 1 mg QD cohort, Study Day 1, mean, read-out: AUC24",138 ng·h/mL
same,Cmax,"[2]; both sexes, human, plasma, oral, 1 mg, 1 mg QD cohort, Study Day 1, mean, read-out: Cmax",7.82 ng/mL
same,Tmax,"[2]; both sexes, human, plasma, oral, 1 mg, 1 mg QD cohort, Study Day 1, median, read-out: tmax",4 h
same,AUC,"[2]; both sexes, human, plasma, oral, 1 mg, 1 mg QD, Study Day 6, mean, read-out: AUC24",162 ng·h/mL
same,Cmax,"[2]; both sexes, human, plasma, oral, 1 mg, 1 mg QD, Study Day 6, mean, read-out: Cmax",10 ng/mL
same,Tmax,"[2]; both sexes, human, plasma, oral, 1 mg, 1 mg QD, Study Day 6, median, read-out: tmax",1 h
same,AUC,"[2]; both sexes, human, plasma, oral, 1 mg, 1 mg QD, Study Day 18, mean, read-out: AUCτ",503 ng·h/mL
same,Cmax,"[2]; both sexes, human, plasma, oral, 1 mg, 1 mg QD, Study Day 18, mean, read-out: Cmax, ss",24.9 ng/mL
same,Tmax,"[2]; both sexes, human, plasma, oral, 1 mg, 1 mg QD, Study Day 18, median, read-out: tmax",4.5 h
same,AUC,"[2]; both sexes, human, plasma, oral, 3 mg, 3 mg QD cohort, Study Day 1, mean, read-out: AUC24",480 ng·h/mL
same,Cmax,"[2]; both sexes, human, plasma, oral, 3 mg, 3 mg QD cohort, Study Day 1, mean, read-out: Cmax",28.7 ng/mL
same,Tmax,"[2]; both sexes, human, plasma, oral, 3 mg, 3 mg QD cohort, Study Day 1, median, read-out: tmax",1.5 h
same,AUC,"[2]; both sexes, human, plasma, oral, 3 mg, 3 mg QD, Study Day 6, mean, read-out: AUC24",594 ng·h/mL
same,Cmax,"[2]; both sexes, human, plasma, oral, 3 mg, 3 mg QD, Study Day 6, mean, read-out: Cmax",34.7 ng/mL
same,Tmax,"[2]; both sexes, human, plasma, oral, 3 mg, 3 mg QD, Study Day 6, median, read-out: tmax",1.54 h
same,AUC,"[2]; both sexes, human, plasma, oral, 3 mg, 3 mg QD, Study Day 18, mean, read-out: AUCτ",1950 ng·h/mL
same,Cmax,"[2]; both sexes, human, plasma, oral, 3 mg, 3 mg QD, Study Day 18, mean, read-out: Cmax, ss",100 ng/mL
same,Tmax,"[2]; both sexes, human, plasma, oral, 3 mg, 3 mg QD, Study Day 18, median, read-out: tmax",4 h
same,AUC,"[2]; both sexes, human, plasma, oral, 6 mg, 6 mg QD cohort, Study Day 1, mean, read-out: AUC24",767 ng·h/mL
same,Cmax,"[2]; both sexes, human, plasma, oral, 6 mg, 6 mg QD cohort, Study Day 1, mean, read-out: Cmax",42 ng/mL
same,Tmax,"[2]; both sexes, human, plasma, oral, 6 mg, 6 mg QD cohort, Study Day 1, median, read-out: tmax",5 h
same,AUC,"[2]; both sexes, human, plasma, oral, 6 mg, 6 mg QD, Study Day 6, mean, n = 5, read-out: AUC24",784 ng·h/mL
same,Cmax,"[2]; both sexes, human, plasma, oral, 6 mg, 6 mg QD, Study Day 6, mean, read-out: Cmax",50.2 ng/mL
same,Tmax,"[2]; both sexes, human, plasma, oral, 6 mg, 6 mg QD, Study Day 6, median, read-out: tmax",5 h
same,AUC,"[2]; both sexes, human, plasma, oral, 6 mg, 6 mg QD, Study Day 18, mean, n = 5, read-out: AUCτ",2930 ng·h/mL
same,Cmax,"[2]; both sexes, human, plasma, oral, 6 mg, 6 mg QD, Study Day 18, mean, n = 5, read-out: Cmax, ss",148 ng/mL
same,Tmax,"[2]; both sexes, human, plasma, oral, 6 mg, 6 mg QD, Study Day 18, median, n = 5, read-out: tmax",3.05 h
same,AUC,"[2]; both sexes, human, plasma, oral, 9 mg, 9 mg QD cohort, Study Day 1, mean, read-out: AUC24",1410 ng·h/mL
same,Cmax,"[2]; both sexes, human, plasma, oral, 9 mg, 9 mg QD cohort, Study Day 1, mean, read-out: Cmax",78.4 ng/mL
same,Tmax,"[2]; both sexes, human, plasma, oral, 9 mg, 9 mg QD cohort, Study Day 1, median, read-out: tmax",4.51 h
same,AUC,"[2]; both sexes, human, plasma, oral, 9 mg, 9 mg QD, Study Day 6, mean, read-out: AUC24",1570 ng·h/mL
same,Cmax,"[2]; both sexes, human, plasma, oral, 9 mg, 9 mg QD, Study Day 6, mean, read-out: Cmax",82 ng/mL
same,Tmax,"[2]; both sexes, human, plasma, oral, 9 mg, 9 mg QD, Study Day 6, median, read-out: tmax",4 h
same,AUC,"[2]; both sexes, human, plasma, oral, 9 mg, 9 mg QD, Study Day 18, mean, read-out: AUCτ",4600 ng·h/mL
same,Cmax,"[2]; both sexes, human, plasma, oral, 9 mg, 9 mg QD, Study Day 18, mean, read-out: Cmax, ss",243 ng/mL
same,Tmax,"[2]; both sexes, human, plasma, oral, 9 mg, 9 mg QD, Study Day 18, median, read-out: tmax",3 h
same,AUC,"[2]; both sexes, human, plasma, oral, Day 18, range over the 0.3 to 9 mg QD dose range, read-out: mean AUCτ",151 to 4600 ng·h/mL
same,concentration at 18 day,"[2]; both sexes, human, plasma, oral, Day 18, range over the 0.3 to 9 mg QD dose range, read-out: mean Cav,ss",6.27 to 192 ng/mL
same,Cmax,"[2]; both sexes, human, plasma, oral, Day 18, range over the 0.3 to 9 mg QD dose range, read-out: mean plasma Cmax,ss",7.86 to 243 ng/mL
same,AUC(0-inf),[2]; [9],133 ng·h/mL
same,AUC(0-t),[2]; [9],118 ng·h/mL
same,Vd/F,[2]; [9],121 L
same,AUC(0-inf),[2]; [10],470 ng·h/mL
same,AUC(0-t),[2]; [10],394 ng·h/mL
same,Vd/F,[2]; [10],133 L
same,AUC(0-inf),[2]; [11],1870 ng·h/mL
same,AUC(0-t),[2]; [11],1470 ng·h/mL
same,Vd/F,[2]; [11],126 L
same,AUC(0-inf),[2]; [12],2330 ng·h/mL
same,AUC(0-t),[2]; [12],1960 ng·h/mL
same,Vd/F,[2]; [12],145 L
same,AUC(0-inf),[2]; [13],5760 ng·h/mL
same,AUC(0-t),[2]; [13],4430 ng·h/mL
same,Vd/F,[2]; [13],119 L
same,Tmax,"[2]; both sexes, human, plasma, po, 9 mg, oral QD 0.3, 1, 3, 6, 9 mg, range over the dose range, read-out: median tmax",2.5 to 4 h
same,attainment of steady-state,[2]; oral QD 0.3-9 mg from Day 6,appeared to reach steady-state on Day 18
